Literature values, collected in US20060281749A1, “Method for treating glaucoma IV B” (priority 2000, published 2006).

Experiments:
Rhesus monkeys [1] = conditions: drug treated vs. control eye, baseline and pilocarpine-stimulated conditions
Rhesus monkeys [2] = conditions: accommodative responses to i.m. pilocarpine

Cc1sc[n+](CC(=O)c2ccccc2)c1C.[Cl-] [4,5-dimethyl-3-(2-oxoethyl-phenethyl) thiazolium chloride]
improvement in ophthalmologic function (increase in outflow facility) (Rhesus monkeys [1]): improvement has been illustrated
Improvement in accommodation (Rhesus monkeys [2]): Improvement in accommodation has been illustrated
